Results on four molecules are retold here after US20160166598A1, “A METHOD FOR TREATING INFECTION, SEPSIS AND INJURY” (priority 2013, published 2016).

One data set concerns the target human NK(1) receptor (Homo sapiens, UniProt P25103). The following applies: cited from earlier work.
In data set [1] the test system is isolated guinea-pig mesenteric artery. In words: Relaxation of isolated mesenteric artery, pressure myograph (Ex 4). As to conditions: for relaxation / artery diameter: endothelium present (adenosine, AL: with or without); for relaxation of isolated intact mesenteric artery: luminal or abluminal, 0.001 to 1 mM. As to the method: Male guinea pigs (250-300 g) were anesthetised and placed in a cradle and the abdomen opened. Second order mesenteric artery branches were isolated and mounted in a pressure myograph (see FIG. 4) under constant pressure of 60 mmHg and perfusion (luminal flow) of 100 uL/min with Krebs-Henseleit buffer (37° C.). Artery diameter was continuously measured using videomicroscopy (see FIG. 4). For the relaxation/vasodilation experiments arteries were equilibrated and then constricted with 10^−8 M arginine vasopressin (AVP). Adenosine, lidocaine or adenosine-lidocaine together were administered 2) luminally and 2) abluminally and concentration curves were obtained. Stock solutions of adenosine and lidocaine alone or adenosine-lidocaine combined were made in deionized water to 20 mM. A range of volumes were pipetted to provide contact concentrations with the vessel lumen or outer wall that ranged from 0.001 to 1 mM. At the end of experiments, arteries were dilated using calcium-free solution to obtain 100% relaxation. A number of arteries were denuded by introducing 5 ml air into the lumen with flow rate 1000 μl/min. The air outflow was then clamped until the intraluminal pressure reached 70 mmHg, flow rate was reduced to 2 μl/min and the vessel remained pressurized for 10 minutes

For data set [2] the following is noted: humans, oral and/or intravenous 10, 25, 50, 100 mg/kg; cited from earlier work.

Each structure is given as a SMILES string.

Chain of human NK(1) receptor (P25103 whole entry, the tested form may be a part): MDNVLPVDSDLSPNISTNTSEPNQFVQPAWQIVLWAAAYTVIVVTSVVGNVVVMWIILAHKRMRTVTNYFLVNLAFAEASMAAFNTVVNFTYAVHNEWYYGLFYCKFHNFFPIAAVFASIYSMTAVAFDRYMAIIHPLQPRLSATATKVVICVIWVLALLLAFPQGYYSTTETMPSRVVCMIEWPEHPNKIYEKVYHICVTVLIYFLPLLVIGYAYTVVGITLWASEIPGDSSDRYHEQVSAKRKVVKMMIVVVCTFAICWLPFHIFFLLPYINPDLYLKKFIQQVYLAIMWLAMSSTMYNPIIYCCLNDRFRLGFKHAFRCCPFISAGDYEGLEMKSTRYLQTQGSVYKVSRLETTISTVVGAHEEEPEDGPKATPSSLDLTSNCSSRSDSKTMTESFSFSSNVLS

Take `Cc1cccc(C)c1NC(=O)CN1CCN(C2CCN(C(=O)c3cc(C(F)(F)F)cc(C(F)(F)F)c3)C(Cc3ccccc3)C2)CC1` (centres unmarked) [R116301]: at human NK(1) receptor, the Ki is 0.45 nM; the “selectivity toward NK(2) and NK(3) receptors” value is recorded as “over 200 fold”.
With `Nc1ncnc2c1ncn2[C@@H]1O[C@H](CO)[C@@H](O)[C@H]1O` [adenosine], in data set [1], the “relaxation / artery diameter” value is “relaxed the mesenteric artery in a dose dependent manner” and the “relaxation of isolated intact mesenteric artery” value is reported as “increased relaxation”.
`CCN(CC)CC(=O)Nc1c(C)cccc1C` [lidocaine]: the relaxation result in data set [1] (endothelium absent) was “relaxed the artery”. Also, in data set [1], the “relaxation / artery diameter” value is reported as “did not significantly change mesenteric artery diameter” and the “relaxation of isolated intact mesenteric artery” value was “failed to produce relaxation”.
Take `NC(=O)c1ncn([C@@H]2O[C@H](CO)[C@@H](O)[C@H]2O)c1N` [Acadesine, 5-amino-4-imidazole carboxamide ribonucleoside]: the safety result in data set [2] is “safe in humans”.
